Entries after “also recorded” stand apart in the source; their conditions may differ.
Key:
human islets [1] = assay: Western blot of PUMA and phospho-p65 in cultured human islets; type: cell-based
Procedure: All data are presented as a mean±standard error.
In some experiments, islets were pre-incubated with 10 μM NFκB inhibitor; BAY11-7082 for 1 hour before cytokine stimulation. Islet cell lysis and western blot was performed as previously described (49).

human islets [2] = assay: IL-1β stimulation of single human islets, mRNA by RT-PCR; type: cell-based; conditions: recombinant IL-1β up to 100 U/mL, up to 16 hours, n=1
Procedure: FIGS. 16A-D. IL-1β up-regulates PUMA mRNA in human islets. Single islets in sextuplicate were stimulated with or without recombinant IL-1β (0.10 and 100 U/mL) for up to 16 hours. FIG. 16A) PUMA, FIG. 16B) IL-8, FIG. 16C) endogenous IL-1B and FIG. 16D) endogenous TNF mRNA in islets were normalized by β actin (% ACTB) mRNA assessed by RT-PCR (n=1). IL-1β induced PUMA, IL-8, endogenous IL-1 and TNF in human islets.
In addition to TNF-α, the expression of PUMA was examined following stimulation with […]. […] alone stimulation induced PUMA, IL-8, TNF and IL1B mRNA within 4 hours. […] IL-1β-induced PUMA expression can also be explained through the NFκB pathway.

human islets [3] = assay: Drug compound screening in single human islets: TNF-α induced PUMA, IL-8 and TNF mRNA; type: cell-based; conditions: pre-incubation 1 hour, 10 μM (Etanercept 0.1 μg/mL), then 5 ng/mL TNF-α 4 hours, vs control (vehicle alone); for TNF-α induced up regulation of PUMA mRNA (% ACTB): FIG. 4A; for TNF-α induced up regulation of IL-8 mRNA (% ACTB): FIG. 4B; for TNF-α induced up regulation of endogenous TNF mRNA (% ACTB): FIG. 4C
Procedure: FIGS. 4A-C. PUMA, IL-8 and TNF-α are used as markers to screen drug compounds protecting islets from TNF-α stimulus. Single human islets in hextuplicate were pre-incubated with various drugs (all used at 10 μM except Etanercept (0.1μ/ml)) or solvent (DMSO) at 37° C. for 1 hour, followed by stimulation with or without 5 ng/ml of TNF-α for an additional 4 hours. FIG. 4A: PUMA and ACTB mRNA were quantified and the results are expressed as % ACTB (*p<0.05 vs. control islets with TNF-α). FIG. 4B: IL-8 was quantified and the results are expressed as % ACTB. FIG. 4C: Endogenous TNF-α was quantified and the results are expressed as % ACTB. Together, the results of FIGS. 4A-C show an example of a compound screening system using PUMA, IL-8 and TNF mRNA.
Human islets and acinar cells isolated for research use were obtained from the Southern California Islet Cell Resources (SC-ICR) Center, Beckman Research Institute of the City of Hope (Duarte, Calif.) 1 to 3 days after isolation. The donor age ranged from 18 to 67 (48±14) years and included both sexes. Islet preparations with >70% purity and >90% viability were used. The use of human islets and acinar cells in this study was approved by the Institutional Review Board of the City of Hope. For mRNA experiments, islets between 150 μm to 300 μm in diameter (medium size islet) were handpicked in hexuplicate by experienced personnel under a dissection microscope without staining. Each handpicked islet was cultured individually in a non-tissue culture treated 96 well plate (Sarstedt, Newton, N.C.) with a CMRL (Mediatech Inc., Holly Hill, Fla.) based serum-free medium, which is used to culture human islets for clinical transplantation. Islets were treated with or without recombinant human TNF-α (0, 1, 5, 50 ng/mL) and/or recombinant human IFNγ (0, 10, 100, 1000 U/mL) for up to 16 hours. For other islet experiments, 500 to 1000 islet equivalent (IEQ) were cultured (500 IEQ/mL of medium) in a Petri dish for up to 24 hours in the same condition described above unless otherwise specified. For acinar cell experiments, acinar cells were kept in islet culture medium at 4° C. immediately after the isolation and used within 24 hours. Aliquots of 5-10 acinar cell clusters in triplicates were cultured with islet culture medium with or without TNF-α for up to 16 hours. For drug compound screening experiments, islets were pre-incubated with Etanercept, FK506, Cyclosporine (CsA), Rapamycin, Imatinib mesylate, Janus Kinase (JAK) inhibitor or p38 inhibitor, SB203580, for 1 hour, and then 5 ng/mL TNF-α was added to the islet culture for 4 hours. All the compounds except Etanercept (0.1 μg/mL) were dissolved in dimethyl sulfoxide (DMSO) and used at a concentration of 10 μM (all compounds are gifts from Hitachi Chemical Research Center).
RNA purification and PCR was performed as described previously (32). Briefly, following culture, islets were transferred to a 96-well filter plate (Hitachi Chemical Research Center-HCR, Irvine, Calif.)(44) and 50 μL of Lysis Buffer (HCR) containing a cocktail of specific reverse primers was applied to each well. Poly(A)+mRNA isolation was performed using the Hem(A)+™ System (Hitachi Chemical Research Center, Irvine, Calif.). The resultant cell lysates were transferred to oligo(dT)-immobilized microplates (GenePlate, HCR) for poly(A)^+ mRNA purification (45). The cDNA was directly synthesized with 30 μL of solution in each well: specific primer-primed cDNA in the liquid phase and oligo(dT)-primed cDNA in the solid phase (44). The cDNA in the solution was diluted by adding 30 μL nuclease-free water, with 4 μL of the diluted cDNA used for SYBR Green PCR (BioRad, Hercules, Calif.) (46). Each gene was amplified individually. The cycle threshold (Ct) was determined using analytical software (SDS, Applied Biosystems, Foster City, Calif.). Differences in Ct between the target and control mRNA (ΔCt) are used to quantify the relative amount of each target, calculated as 2^−ΔCt. […]

[4] = children with new onset of T1DM; cited from earlier work
islets = conditions: in vitro; cited from earlier work
NOD mice = conditions: cited from earlier work
human islets [5] = assay: Cytokine stimulation of single human islets, mRNA quantification; type: cell-based; conditions: TNF-α 1, 5, 50 ng/ml and/or IFNγ 10, 100, 1000 U/ml
Procedure: Single islets were stimulated with or without 50 ng/ml TNF-α for 16 hours. Each dot indicates the result of one islet lot tested in hextuplicate. The tests were performed using 4 different human islet lots. Bars indicate the mean of 4 lots. Each gene expression was normalized by ACTB (a gene encoding β actin), and the fold increase was calculated by dividing TNF-α treated islets by control islets (*p<0.01, n=4). […] FIGS. 8B-D) PUMA (FIG. 8B), IL-8 (FIG. 8C) and TNF-α (FIG. 8D) expression from single human islets (n=6) stimulated with 0 (open circles), 1 (solid triangles), 5 (solid squares) and 50 ng/ml (solid circles) TNF-α for 0, 1, 4, 16 hours in 3 independent cases. Dose dependent expression of (FIG. 8E) PUMA, (FIG. 8F) IL-8 and (FIG. 8G) TNF-α in human islet at the 4 hour time point (n=3). […] (FIG. 8K) PUMA and (FIG. 8L) IL-8 expression in human islets stimulated with or without TNF-α (1, 5, 50 ng/ml) and/or IFNγ (10, 100, 1000 U/ml) for 4 hours. […] All data are presented as a mean±standard error.
Human islets and acinar cells isolated for research use were obtained from the Southern California Islet Cell Resources (SC-ICR) Center, Beckman Research Institute of the City of Hope (Duarte, Calif.) 1 to 3 days after isolation. The donor age ranged from 18 to 67 (48±14) years and included both sexes. Islet preparations with >70% purity and >90% viability were used. […]

human islets [6] = assay: Preproinsulin precursor mRNA synthesis and total insulin release of single human islets; type: cell-based; conditions: 16 hours, high glucose; TNF-α 50 ng/mL; IFNγ 10-1000 U/ml; FIG. 3B, 3C
Procedure: FIG. 3B) The glucose induced newly synthesized preproinsulin precursor mRNA measured by pre-spliced preproinsulin mRNA normalized by pre- and post-spliced preproinsulin mRNA (% exon) in the corresponding islets with or without 50 ng/ml. TNF-α was also examined (n=3, *p<0.05). FIG. 3C) Glucose induced preproinsululin precursor mRNA synthesis with or without TNF-α (1, 5 and 50 ng/ml) and/or IFNγ (10, 100 and 1000 U/ml) from a single human islet in hextuplicate. […] All data are presented as a mean±standard error.
Hand picked human islets were cultured with 100 uL of RPMI 1640 medium containing 5% fetal bovine serum and either low-glucose (3.3 mmol/L) or high-glucose (17 mmol/L) for 16 hours. Preproinsulin mRNA synthesis was measured from the islets by the methods described above. Pre-spliced preproinsulin mRNA (preproinsulin precursor mRNA) was normalized by pre- and post-spliced preproinsulin mRNA as described previously (32).
The effect of TNF-α and/or IFN-γ on β cell function was examined by analyzing the ability of human islets to synthesize and release insulin. […] The dose dependent effect of TNF-α and/or IFN-γ on preproinsulin precursor mRNA synthesis was also examined.

Molecule: Cc1ccc(S(=O)(=O)/C=C/C#N)cc1 [BAY11-7082]
- PUMA expression induced by the combination of TNF-α and IFNγ (western blot) (human islets [1]; 10 μM pre-incubation 1 hour, TNF-α 50 ng/ml + IFNγ 1000 U/ml, FIG. 2C): did not inhibit PUMA expression

Molecule: IL-1β: recombinant IL-1β; cytokine stimulus
- PUMA mRNA (% ACTB) in human islets (human islets [2]; FIG. 16A): induced; also recorded: returned to the normal level by 16 hours
- IL-8 mRNA (% ACTB) in human islets (human islets [2]; FIG. 16B): induced
- endogenous IL-1B mRNA (% ACTB) in human islets (human islets [2]; FIG. 16C): induced
- endogenous TNF mRNA (% ACTB) in human islets (human islets [2]; FIG. 16D): induced

Molecule: Etanercept
- TNF-α induced up regulation of PUMA mRNA (% ACTB) (human islets [3]): prevented TNF-α induced up regulation
- TNF-α induced up regulation of IL-8 mRNA (% ACTB) (human islets [3]): prevented TNF-α induced up regulation
- TNF-α induced up regulation of endogenous TNF mRNA (% ACTB) (human islets [3]): prevented TNF-α induced up regulation
- HbA1C levels [4]: lowering HbA1C levels
- endogenous insulin production [4]: increased levels of endogenous insulin production

Molecule: Cc1ccc(NC(=O)c2ccc(CN3CCN(C)CC3)cc2)cc1Nc1nccc(-c2cccnc2)n1 [Imatinib]
- TNF-α induced up regulation of PUMA mRNA (% ACTB) (human islets [3]): reduced the up regulation
- TNF-α induced up regulation of IL-8 mRNA (% ACTB) (human islets [3]): reduced the up regulation
- TNF-α induced up regulation of endogenous TNF mRNA (% ACTB) (human islets [3]): reduced the up regulation
- protection of islets from combined cytokines (islets): protect islets from combined cytokines
- spontaneous onset of diabetes (NOD mice): prevents the spontaneous onset of diabetes

B1: IFN-γ: recombinant human IFNγ, R&D Systems; cytokine stimulus (protein, UniProt P01579 24-161, looked up)
Interferon gamma: QDPYVKEAENLKKYFNAGHSDVADNGTLFLGILKNWKEESDRKIMQSQIVSFYFKLFKNFKDDQSIQKSVETIKEDMNVKFFNSNKKKRDDFEKLTNYSVTDLNVQRKAIHELIQVMAELSPAAKTGKRKRSQMLFRG
- PUMA protein expression (western blot) (human islets [1]; TNF-α 50 ng/mL and/or IFN-γ 1000 U/mL, FIG. 2A): but not by IFN-γ (1000 U/mL) alone
- PUMA mRNA expression in human islets (human islets [5]; 4 hours, FIG. 8K): did not induce PUMA
- IL-8 mRNA expression in human islets (human islets [5]; FIG. 8C, 8F, 8L): did not induce IL-8 expression
- glucose-induced preproinsulin precursor mRNA synthesis (human islets [6]): did not impair

Reference: patent US20180030537A1, “PUMA, A PRO-APOPTOTIC GENE, AS A NOVEL MOLECULAR BIOMARKER FOR TNFALPHA-INDUCED HUMAN ISLET DAMAGE” (CITY OF HOPE, priority 2010, published 2018)
